Data published in US6740644B2, “Chemical compounds” (Smithkline Beecham Corporation, priority 1997, dated 2004).

How the values were obtained:
A3 receptor = biological target: T1, A3 receptor (Homo sapiens, UniProt P0DMS8); test: Reporter gene experiments: A3 receptor gene assay, ECR relative to NECA; settings: ECR = concentration ratio relative to NECA = 1
T1 sequence (P0DMS8 1-318): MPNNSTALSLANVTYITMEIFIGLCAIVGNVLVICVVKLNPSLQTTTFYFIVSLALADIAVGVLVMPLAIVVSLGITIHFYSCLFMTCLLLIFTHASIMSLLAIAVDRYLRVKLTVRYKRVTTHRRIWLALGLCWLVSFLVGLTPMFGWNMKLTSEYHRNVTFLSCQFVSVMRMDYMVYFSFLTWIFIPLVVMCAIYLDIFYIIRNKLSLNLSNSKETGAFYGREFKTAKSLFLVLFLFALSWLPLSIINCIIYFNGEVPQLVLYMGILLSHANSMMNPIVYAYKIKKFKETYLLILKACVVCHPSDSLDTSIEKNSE

[1] = biological target: T2, human adenosine A1 receptor (Homo sapiens, UniProt P30542); test: Reporter gene experiments: inhibition of forskolin-stimulated SPAP production in CHO cells (CRE/SPAP/HYG), A1; assay type: cell-based; settings: ECR = concentration ratio relative to NECA = 1, CHO cells co-expressing human adenosine A1 receptor
T2 construct: expressed in transfected cells; host or cells: Chinese hamster ovary (CHO) cells containing the CRE/SPAP/HYG reporter gene
T2 sequence (P30542 1-326): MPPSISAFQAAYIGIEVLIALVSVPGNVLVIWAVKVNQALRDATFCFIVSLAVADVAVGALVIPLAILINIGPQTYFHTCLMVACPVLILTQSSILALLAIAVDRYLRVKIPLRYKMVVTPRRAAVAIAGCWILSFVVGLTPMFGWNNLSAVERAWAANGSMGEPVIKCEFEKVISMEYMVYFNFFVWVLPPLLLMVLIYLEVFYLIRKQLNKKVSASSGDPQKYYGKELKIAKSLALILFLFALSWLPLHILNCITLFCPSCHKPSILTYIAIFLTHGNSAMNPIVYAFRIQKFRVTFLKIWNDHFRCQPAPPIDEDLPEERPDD
Method: Reporter Gene Experiments
Agonist activity was measured in Chinese hamster ovary (CHO) cells containing the CRE/SPAP/HYG (CRE=cyclic AMP response element; HYG=hygromycin; SPAP=secreted placental alkaline phosphatase) reporter gene, which upon stimulation of cAMP levels produced SPAP. A cell line was used, which stably co-expresses the human adenosine A1 receptor. Cells were plated out in 96-well plates in culture medium and incubated at 37° C. for 1 hour. […] All cells were then incubated for a further 5 hours at 37° C., and cooled to room temperature, after which a substrate for the phosphatase (para-nitrophenol phosphate,pNPP), which is broken down to a coloured reagent) was then added and the 96-well plates are read in a plate reader. From these readings, the concentration-dependence of the inhibition by the agonist of forskolin-stimulated SPAP production, can be calculated.

A3 Receptor Gene Assay ECR (A3 receptor) | melting point [°C] | A1 Receptor Gene Assay ECR [1] | Molecule
180 | 133 to 134 | 3.30 | COC[C@H]1O[C@@H](n2cnc3c(NC4CCOCC4)ncnc32)[C@H](O)[C@@H]1O [Example 2, 5′-O-Methyl-N-(tetrahydro-pyran-4-yl)-adenosine]
>116 | 225 to 230 | 6.21 | COC[C@H]1O[C@@H](n2cnc3c(Nc4ccc(O)c(Cl)c4)ncnc32)[C@H](O)[C@@H]1O [Example 5, N-(3-Chloro-4-hydroxy-phenyl)-5′-O-methyl-adenosine]
5.00 |  | 1.27 | COC[C@H]1O[C@@H](n2cnc3c(N[C@H](C)Cc4ccccc4)ncnc32)[C@H](O)[C@@H]1O [Example 6, 5′-O-Methyl-N-(1R-methyl-2-phenyl-ethyl)-adenosine]
 | 232 to 233 |  | COC[C@H]1O[C@@H](n2cnc3c(N[C@H](C)CO)ncnc32)[C@H](O)[C@@H]1O [Example 14, N-(2-Hydroxy-1R-methyl-ethyl)-5′-O-methyl-adenosine]
57.3 | 202 to 204 | 3.90 | COC[C@H]1O[C@@H](n2cnc3c(N[C@@H]4CCC[C@H]4O)ncnc32)[C@H](O)[C@@H]1O [Example 17, N-(2R-Hydroxy-(R)-cyclopentyl)-5′-O-methyl-adenosine]
>243 |  | 1.62 | COC[C@H]1O[C@@H](n2cnc3c(NC(C)(C)C)ncnc32)[C@H](O)[C@@H]1O [Example 19, N-tert-Butyl-5′-O-methyl-adenosine]
>288 |  | 1.67 | CNS(=O)(=O)CCNc1nc(C)nc2c1ncn2[C@@H]1O[C@H](COC)[C@@H](O)[C@H]1O [Example 25, 2-[9-(3R,4S-Dihydroxy-5R-methoxymethyl-tetrahydro-furan-2R-yl)-2-methyl-9H-purin-6-ylamino]-ethanesulfonic acid methylamide]
>263 |  | 3.02 | COC[C@H]1O[C@@H](n2cnc3c(NC4CCCC4)nc(C)nc32)[C@H](O)[C@@H]1O [Example 27, N-Cyclopentyl-2-methyl-5′-O-methyl-adenosine]
>99 |  | 8.07 | COC[C@H]1O[C@@H](n2cnc3c(NCC4CC4)nc(C)nc32)[C@H](O)[C@@H]1O [Example 28, N-Cyclopropylmethyl-2-methyl-5′-O-methyl-adenosine]

Molecule | A3 Receptor Gene Assay ECR (A3 receptor) | melting point [°C] | A1 Receptor Gene Assay ECR [1]
COC[C@H]1O[C@@H](n2cnc3c(N[C@@H]4C[C@@H]5CC[C@H]4C5)ncnc32)[C@H](O)[C@@H]1O (relative stereo) [Example 22, N-rel-[(1S,4R)-Bicyclo[2.2.1]hept-2R-yl]-5′-O-methyl-adenosine] | 112 |  | 
COC[C@H]1O[C@@H](n2cnc3c(N[C@@H]4CCOC4)ncnc32)[C@H](O)[C@@H]1O [Example 1, 5′-O-Methyl-N-(tetrahydro-furan-3R-yl)-adenosine] | >129 |  | 
COC[C@H]1O[C@@H](n2cnc3c(N[C@H]4CCC[C@@H]4OC)ncnc32)[C@H](O)[C@@H]1O [Example 3, N-(2S-Methoxy-(S)-cyclopentyl)-5′-O-methyl-adenosine] | 204 |  | 
COC[C@H]1O[C@@H](n2cnc3c(N[C@@H]4CCO[C@H]4C)ncnc32)[C@H](O)[C@@H]1O [Example 4, 5′-O-Methyl-N-(2S-methyl-tetrahydro-furan-3R-yl)-adenosine] | 338 |  | 
COC[C@H]1O[C@@H](n2cnc3c(N[C@H]4CCC[C@@H]4F)ncnc32)[C@H](O)[C@@H]1O [Example 20, N-(2S-Fluoro-(S)-cyclopentyl)-5′-O-methyl-adenosine] | 54.8 |  | 
CCOC(=O)N1CCC(Nc2ncnc3c2ncn3[C@@H]2O[C@H](COC)[C@@H](O)[C@H]2O)CC1 [Example 23, 4-[9-(3R,4S-Dihydroxy-5R-methoxymethyl-tetrahydro-furan-2R-yl)-9H-purin-6-ylamino]-piperidine-1-carboxylic acid ethyl ester] | 162 |  | 2.20
N-(2,3-Dihydroxy-propylamino)-5′-O-methyl-adenosine [Example 21] | 135 |  | 
